In ChEMBL document CHEMBL4130433, “Acridone-pyrimidine hybrids- design, synthesis, cytotoxicity studies in resistant and sensitive cancer cells and molecular docking studies” (Eur J Med Chem, 2017):

What was measured:
[1] = Antiproliferative activity against human MCF7/MX cells after 72 hrs by MTT assay; type: functional, cell-based
Rattus norvegicus [2] = experiment: Toxicity in overnight fasted albino Wistar rat assessed as body weight at 2000 mg/kg, po administered as single dose followed by fasting for 3 hrs measured on day 3 post dose (reference value: 166 +/- 10 g); type: organism-based; details: in vivo
Rattus norvegicus [3] = experiment: Toxicity in overnight fasted albino Wistar rat assessed as body weight at 2000 mg/kg, po administered as single dose followed by fasting for 3 hrs measured on day 11 post dose (reference value: 185 +/- 8 g); type: organism-based; details: in vivo
Rattus norvegicus [4] = experiment: Toxicity in overnight fasted albino Wistar rat assessed as body weight at 2000 mg/kg, po administered as single dose followed by fasting for 3 hrs measured on day 12 post dose (reference value: 186 +/- 13 g); type: organism-based; details: in vivo
Rattus norvegicus [5] = experiment: Toxicity in overnight fasted albino Wistar rat assessed as body weight at 2000 mg/kg, po administered as single dose followed by fasting for 3 hrs measured on day 2 post dose (reference value: 165 +/- 12 g); type: organism-based; details: in vivo
Rattus norvegicus [6] = experiment: Toxicity in overnight fasted albino Wistar rat assessed as body weight at 300 mg/kg, po administered as single dose followed by fasting for 3 hrs measured on day 3 post dose (reference value: 166 +/- 10 g); type: organism-based; details: in vivo
2008 [7] = experiment: Antiproliferative activity against human 2008 cells after 72 hrs by MTT assay; type: functional, cell-based; details: Homo sapiens, 2008, 72 h
Rattus norvegicus [8] = experiment: Toxicity in overnight fasted albino Wistar rat assessed as body weight at 300 mg/kg, po administered as single dose followed by fasting for 3 hrs measured on day 7 post dose (reference value: 175 +/- 10 g); type: organism-based; details: in vivo
Rattus norvegicus [9] = experiment: Toxicity in overnight fasted albino Wistar rat assessed as body weight at 5000 mg/kg, po administered as single dose followed by fasting for 3 hrs measured on day 3 post dose (reference value: 166 +/- 10 g); type: organism-based; details: in vivo
Rattus norvegicus [10] = experiment: Toxicity in overnight fasted albino Wistar rat assessed as body weight at 2000 mg/kg, po administered as single dose followed by fasting for 3 hrs measured on day 10 post dose (reference value: 182 +/- 15 g); type: organism-based; details: in vivo
Rattus norvegicus [11] = experiment: Toxicity in overnight fasted albino Wistar rat assessed as body weight at 2000 mg/kg, po administered as single dose followed by fasting for 3 hrs measured on day 1 post dose (reference value: 162 +/- 8 g); type: organism-based; details: in vivo
Rattus norvegicus [12] = experiment: Toxicity in overnight fasted albino Wistar rat assessed as body weight at 5000 mg/kg, po administered as single dose followed by fasting for 3 hrs measured on day 4 post dose (reference value: 169 +/- 5 g); type: organism-based; details: in vivo
SW1573 = experiment: Antiproliferative activity against human SW1573 cells after 72 hrs by MTT assay; type: functional, cell-based; details: SW1573, 72 h
Rattus norvegicus [13] = experiment: Toxicity in overnight fasted albino Wistar rat assessed as body weight at 300 mg/kg, po administered as single dose followed by fasting for 3 hrs measured on day 6 post dose (reference value: 173 +/- 12 g); type: organism-based; details: in vivo
Rattus norvegicus [14] = experiment: Toxicity in overnight fasted albino Wistar rat assessed as body weight at 2000 mg/kg, po administered as single dose followed by fasting for 3 hrs measured on day 13 post dose (reference value: 188 +/- 16 g); type: organism-based; details: in vivo
Rattus norvegicus [15] = experiment: Toxicity in overnight fasted albino Wistar rat assessed as body weight at 300 mg/kg, po administered as single dose followed by fasting for 3 hrs measured on day 1 post dose (reference value: 162 +/- 8 g); type: organism-based; details: in vivo
MDA-MB-231 = experiment: Antiproliferative activity against human MDA-MB-231 cells after 72 hrs by MTT assay; type: functional, cell-based; details: MDA-MB-231, 72 h
Rattus norvegicus [16] = experiment: Toxicity in overnight fasted albino Wistar rat assessed as body weight at 300 mg/kg, po administered as single dose followed by fasting for 3 hrs measured on day 9 post dose (reference value: 180 +/- 12 g); type: organism-based; details: in vivo
Rattus norvegicus [17] = experiment: Toxicity in overnight fasted albino Wistar rat assessed as body weight at 5000 mg/kg, po administered as single dose followed by fasting for 3 hrs measured on day 13 post dose (reference value: 188 +/- 16 g); type: organism-based; details: in vivo
Rattus norvegicus [18] = experiment: Toxicity in overnight fasted albino Wistar rat assessed as body weight at 5000 mg/kg, po administered as single dose followed by fasting for 3 hrs measured on day 12 post dose (reference value: 186 +/- 13 g); type: organism-based; details: in vivo
Rattus norvegicus [19] = experiment: Toxicity in overnight fasted albino Wistar rat assessed as body weight at 2000 mg/kg, po administered as single dose followed by fasting for 3 hrs measured on day 8 post dose (reference value: 177 +/- 8 g); type: organism-based; details: in vivo
Rattus norvegicus [20] = experiment: Toxicity in overnight fasted albino Wistar rat assessed as body weight at 300 mg/kg, po administered as single dose followed by fasting for 3 hrs measured on day 4 post dose (reference value: 169 +/- 5 g); type: organism-based; details: in vivo
Rattus norvegicus [21] = experiment: Toxicity in overnight fasted albino Wistar rat assessed as body weight at 300 mg/kg, po administered as single dose followed by fasting for 3 hrs measured on day 5 post dose (reference value: 172 +/- 14 g); type: organism-based; details: in vivo
Rattus norvegicus [22] = experiment: Toxicity in overnight fasted albino Wistar rat assessed as body weight at 5000 mg/kg, po administered as single dose followed by fasting for 3 hrs measured on day 14 post dose (reference value: 191 +/- 18 g); type: organism-based; details: in vivo
Rattus norvegicus [23] = experiment: Toxicity in overnight fasted albino Wistar rat assessed as body weight at 300 mg/kg, po administered as single dose followed by fasting for 3 hrs measured on day 14 post dose (reference value: 191 +/- 18 g); type: organism-based; details: in vivo
2008 [24] = experiment: Antiproliferative activity against resistant human 2008 cells clone 6 harboring MRP1 after 72 hrs by MTT assay; type: functional, cell-based; details: Homo sapiens, 2008, 72 h
Rattus norvegicus [25] = experiment: Toxicity in overnight fasted albino Wistar rat assessed as body weight at 5000 mg/kg, po administered as single dose followed by fasting for 3 hrs measured on day 1 post dose (reference value: 162 +/- 8 g); type: organism-based; details: in vivo
Rattus norvegicus [26] = experiment: Toxicity in overnight fasted albino Wistar rat assessed as body weight at 2000 mg/kg, po administered as single dose followed by fasting for 3 hrs measured on day 5 post dose (reference value: 172 +/- 14 g); type: organism-based; details: in vivo
[27] = biological target: RAC-alpha serine/threonine-protein kinase (Homo sapiens, UniProt P31749); experiment: Inhibition of PH domain lacking AKT1 (unknown origin) using Tamara-labeled GRPRTSSFAEG peptide as substrate after 90 mins by fluorescence polarization IMAP assay
Chain of RAC-alpha serine/threonine-protein kinase (P31749 whole entry, the tested form may be a part): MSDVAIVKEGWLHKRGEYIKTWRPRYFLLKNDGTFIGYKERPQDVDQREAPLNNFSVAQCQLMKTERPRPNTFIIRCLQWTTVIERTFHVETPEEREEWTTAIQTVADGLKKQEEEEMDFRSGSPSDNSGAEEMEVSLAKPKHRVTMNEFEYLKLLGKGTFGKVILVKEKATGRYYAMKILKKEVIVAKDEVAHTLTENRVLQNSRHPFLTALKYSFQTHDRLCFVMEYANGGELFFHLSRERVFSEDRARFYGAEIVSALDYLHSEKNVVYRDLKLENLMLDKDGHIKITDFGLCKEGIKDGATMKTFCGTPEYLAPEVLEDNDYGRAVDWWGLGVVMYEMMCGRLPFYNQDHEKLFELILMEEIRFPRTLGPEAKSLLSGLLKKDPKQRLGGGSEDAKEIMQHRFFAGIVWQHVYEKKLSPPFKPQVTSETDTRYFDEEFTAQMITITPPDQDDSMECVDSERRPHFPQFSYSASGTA

Rattus norvegicus [28] = experiment: Toxicity in overnight fasted albino Wistar rat assessed as body weight at 2000 mg/kg, po administered as single dose followed by fasting for 3 hrs measured on day 7 post dose (reference value: 175 +/- 10 g); type: organism-based; details: in vivo
Rattus norvegicus [29] = experiment: Toxicity in overnight fasted albino Wistar rat assessed as body weight at 5000 mg/kg, po administered as single dose followed by fasting for 3 hrs measured on day 9 post dose (reference value: 180 +/- 12 g); type: organism-based; details: in vivo
Rattus norvegicus [30] = experiment: Toxicity in overnight fasted albino Wistar rat assessed as body weight at 5000 mg/kg, po administered as single dose followed by fasting for 3 hrs measured on day 5 post dose (reference value: 172 +/- 14 g); type: organism-based; details: in vivo
Rattus norvegicus [31] = experiment: Toxicity in overnight fasted albino Wistar rat assessed as body weight at 300 mg/kg, po administered as single dose followed by fasting for 3 hrs measured on day 2 post dose (reference value: 165 +/- 12 g); type: organism-based; details: in vivo

Compound `COC(=O)c1c(C)nc(NNC(=O)c2cccc3c(=O)c4ccccc4[nH]c23)nc1-c1ccc(OC)c(OC)c1` has an IC50 [1] of 78 µM, an Activity (Rattus norvegicus [2]) of 186 g and an Activity (Rattus norvegicus [3]) of 205 g. The Activity (Rattus norvegicus [4]) was 206 g, the Activity (Rattus norvegicus [5]) was 184 g and the Activity (Rattus norvegicus [6]) was 185 g. The IC50 2008 [7] was 26 µM, the Activity (Rattus norvegicus [8]) was 191 g and the Activity (Rattus norvegicus [9]) was 192 g. It also gave an Activity (Rattus norvegicus [10]) of 202 g, an Activity (Rattus norvegicus [11]) of 183 g and an Activity (Rattus norvegicus [12]) of 196 g. The IC50 (SW1573) was 4 µM, the Activity (Rattus norvegicus [13]) was 190 g and the Activity (Rattus norvegicus [14]) was 209 g. For the same compound, the Activity (Rattus norvegicus [15]) was 182 g, the IC50 (MDA-MB-231) was 62.9 µM and the Activity (Rattus norvegicus [16]) was 193 g. For the same compound, the Activity (Rattus norvegicus [17]) was 224 g, the Activity (Rattus norvegicus [18]) was 221 g and the Activity (Rattus norvegicus [19]) was 197 g. The Activity (Rattus norvegicus [20]) was 186 g, the Activity (Rattus norvegicus [21]) was 188 g and the Activity (Rattus norvegicus [22]) was 228 g. For the same compound, the Activity (Rattus norvegicus [23]) was 208 g, the IC50 2008 [24] was 65 µM and the Activity (Rattus norvegicus [25]) was 188 g. It also gave an Activity (Rattus norvegicus [26]) of 190 g, an IC50 [27] of 0.311 µM and an Activity (Rattus norvegicus [28]) of 195 g. It also gave an Activity (Rattus norvegicus [29]) of 212 g, an Activity (Rattus norvegicus [30]) of 198 g and an Activity (Rattus norvegicus [31]) of 183 g.
